pIC50: −log10 of the molar value.
Columns and labels:
rat P2X4 = biological target: T1, rat P2X4 (Rattus norvegicus, UniProt P51577); experiment: FLIPR Method for Rat P2X4 1321N1 Astrocytoma Cells; assay type: cell-based; conditions: 1321N1 stably expressing rat P2X4; agonist MgATP 5 μM (EC80)
T1 construct: expressed in transfected cells
T1 sequence (P51577 1-388): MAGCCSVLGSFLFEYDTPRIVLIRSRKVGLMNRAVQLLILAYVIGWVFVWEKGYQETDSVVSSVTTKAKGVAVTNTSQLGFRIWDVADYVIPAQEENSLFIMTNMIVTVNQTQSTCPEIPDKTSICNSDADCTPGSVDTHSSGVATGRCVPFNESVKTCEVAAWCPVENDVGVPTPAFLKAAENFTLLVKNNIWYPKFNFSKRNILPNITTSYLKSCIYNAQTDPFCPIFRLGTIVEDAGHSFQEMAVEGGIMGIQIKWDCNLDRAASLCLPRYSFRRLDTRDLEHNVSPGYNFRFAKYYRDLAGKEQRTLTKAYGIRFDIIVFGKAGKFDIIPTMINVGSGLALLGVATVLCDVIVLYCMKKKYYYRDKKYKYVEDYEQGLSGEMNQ
How it was run: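 1321N1 cells stably expressing rat P2X4, Fluo8-AM loaded; compounds (25 μM to 1 nM final, ten concentrations) preincubated 30 min at room temperature, then MgATP added at 5 μM (EC80). Calcium fluorescence read on FLIPR before and after agonist; triplicate data normalized to agonist control, four-parameter fit gives IC50.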

human P2X4 = biological target: T2, human P2X4 (Homo sapiens, UniProt Q99571); experiment: Human P2X4 HEK Cell FLIPR Assay; assay type: cell-based; conditions: HEK293 stably expressing human P2X4, agonist Bz-ATP 3 μM (EC80)
T2 construct: expressed in transfected cells
T2 sequence (Q99571 1-388): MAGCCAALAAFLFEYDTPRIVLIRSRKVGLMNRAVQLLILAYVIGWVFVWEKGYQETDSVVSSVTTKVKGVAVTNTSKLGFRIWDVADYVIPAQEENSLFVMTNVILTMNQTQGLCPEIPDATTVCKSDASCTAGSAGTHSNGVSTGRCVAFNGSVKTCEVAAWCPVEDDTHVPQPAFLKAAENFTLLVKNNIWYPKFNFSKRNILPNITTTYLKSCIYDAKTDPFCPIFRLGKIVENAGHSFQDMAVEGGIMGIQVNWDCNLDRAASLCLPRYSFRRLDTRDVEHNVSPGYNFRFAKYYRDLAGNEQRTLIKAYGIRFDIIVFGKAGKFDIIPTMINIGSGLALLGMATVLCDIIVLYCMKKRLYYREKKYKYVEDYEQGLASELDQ
How it was run: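 Compounds were preincubated 30 min at room temperature on Fluo8-AM-loaded HEK293 cells stably expressing human P2X4. The response was the calcium fluorescence rise on Bz-ATP addition.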

[1] = tested on: intraplantar Complete Freund's Adjuvant (CFA)-induced acute inflammatory pain; experiment: CFA Inflammation Model in Rats with Pain Behaviour Read Out; assay type: in vivo, male Sprague Dawley rats; conditions: for PWT 2 hour-post drug / PWT 4 hour-post drug: mean PWT
Protocol: Compound was tested in the model of intraplantar Complete Freund's Adjuvant (CFA)-induced acute (48-hours setting) inflammatory pain in male Sprague Dawley rats. Briefly, 25 μl of CFA at 1 mg/ml was injected into the plantar surface of one hind paw. Mechanical hyperalgesia was measured using the Pressure Application Measurement apparatus (Ugo Basile, Gemonio, Italy). A linearly increasing pressure was applied to an area of approximately 50 mm^2 of the plantar side of the hind paw until a behavioural response (paw withdrawal) was observed or until the pressure reached 1000 grams of force (gf). The pressure at which the behavioural response occurred was recorded as the “Paw Withdrawal Threshold” (PWT). Both CFA-injected and contralateral PWTs were determined for each rat, in each treatment group and at each time point of the studies. The measurements were performed blinded. […] Compound or vehicle (10% DMSO, 40% Solutol, 50% water for injection, vol/vol) were dosed via oral route (p.o.) once daily (QD) or twice daily (BID) during 3 days, starting before CFA injection. Data were expressed as the mean PWT for each treatment group and at each time point. PWT data were analysed by performing a two way ANOVA with repeated measures (time×treatment). Planned comparison of means (each versus vehicle) was performed by using a Dunnett's post hoc test, provided that a main effect was detected. For p values less than 0.05, the results were deemed to be statistically significant.

[2] = tested on: neuropathic mechanical allodynia induced by CCI surgery; experiment: Chronic Constriction Injury (CCI) Neuropathic Pain Model in Rats with Pain Behavior Read Out; assay type: in vivo, male Sprague-Dawley rats; conditions: rat CCI; von Frey; gabapentin 100 mg/kg SID on days 0, 2, 5, 9; all post-dose time points
Protocol: Aim of the study was to test the efficacy of example 68 at ameliorating neuropathic mechanical allodynia. Male Sprague-Dawley rats were subject to chronic constriction injury of the sciatic nerve to induce neuropathic pain. Of those rats, 10 per group were assigned to treatment conditions involving BID drug administration for 10 days and behavioral assessment of mechanical sensitivity for allodynia with von Frey testing (vF). Behavior was assessed pre- and postdosing on Days 0, 2, 5, and 9. Rats were treated with Vehicle or test article BID on days 0 through 9, and rats in the gabapentin treatment group received gabapentin SID on days 0, 2, 5, and 9 in conjunction with behavioral assessment.
As vehicle Solutol/DMSO/WFI (40/10/50) was employed. Application volume for the per oral administration was 10 ml/kg.
Neuropathy was induced in male Sprague-Dawley rats by tying four loose ligatures of chromic gut around the common sciatic nerve in deeply anesthetized rats like described in Bennett, G. J., and Y. K. Xie. “A Peripheral Mononeuropathy in Rat That Produces Disorders of Pain Sensation like Those Seen in Man.” Pain 33 (1988): 87-107.
Mechanical allodynia was measured using 8 Semmes-Weinstein filaments (Stoelting©; Wood Dale, Ill., USA) with varying stiffness (0.4, 0.6, 1.0, 2.0, 4.0, 6.0, 8.0, and 15 g) according to the up-down method1. Animals were placed in individual acrylic chambers on a metal mesh surface and allowed to acclimate to their surroundings for a minimum of 15 minutes before testing. Each filament was presented perpendicular to the plantar surface with sufficient force to cause slight buckling against the paw and held for approximately 6 seconds or until a positive response is noted (paw sharply withdrawn).
Testing was initiated with the 2.0 g filament. In the absence of a paw withdrawal response, the next stronger stimulus was presented. In the event of paw withdrawal, the next weaker stimulus was used. […]
The 50% response threshold is calculated using the formula: […]

[3] = rat CFA, 50 mg/kg QD p.o. during 3 days
[4] = rat CFA, 100 mg/kg QD p.o. during 3 days

Row | SMILES | pIC50 (rat P2X4) | Rat P2X4 1321N1 Astrocytoma Cells (FLIPR Assay) avg Efficacy (rat P2X4) | Human P2X4 HEK Cells (FLIPR Assay) avg Efficacy (human P2X4) | pIC50 (human P2X4; read-out: Human P2X4 HEK Cells (FLIPR Assay) avg IC50) | PWT 2 hour-post drug [1, 3] | PWT 4 hour-post drug [1, 3] | PWT 2 hour-post drug [1, 4] | PWT 4 hour-post drug [1, 4] | pain after treatment ([1]; rat CFA, 50 and 100 mg/kg doses QD, 2 and 4 hours after last administration) | development of inflammatory pain after the injection of CFA ([1]; rat, oral administration QD during 3 days) | paw withdrawal thresholds [2]
1 | CC(=O)N(c1ccc(F)cc1)c1cc(NC(=O)Cc2cccc(F)c2Cl)ccn1 [Example 2, N-{4-[2-(2-chloro-3-fluorophenyl)acetamido]pyridin-2-yl}-N-(4-fluorophenyl)acetamide] | 6.45 | 95% | 97% | 6.67 | 727 gf | 688 gf | 763 gf | 839 gf | significantly reduced pain | prevented the development of inflammatory pain | –
2 | NCC1(CC(=O)O)CCCCC1 [Gabapentin, gabapentin, reference compound] | – | – | – | – | – | – | – | – | – | – | significantly increased paw withdrawal thresholds
